According to paper PMC9643456, “Matching amino acids membrane preference profile to improve activity of antimicrobial peptides” (Communications Biology, 2022):
Like-named read-outs stand apart in the source and are kept apart here. Square brackets hold non-standard residues; d marks the D form. Peptide text beside a SMILES is read from it.

Test system: human red blood cells
Test: Hemolytic activity
Type: cell-based
Method: Human red blood cells (Zenbio, North Carolina, USA) and peptides were separately diluted in PBS (blood concentration, 8%). The blood cell and peptide solutions were then mixed in 96-well polyethylene plates (SPL, Gyeonggi-do, Korea) and incubated for 18 h at 37 °C. The final concentration of human red blood cells was 4%, while peptide concentrations were 100 μM, 50 μM, 25 μM, 12.5 μM, 6.25 μM, 3.13 μM, 1.56 μM, and 0.78 μM. After incubation, the plates were centrifuged at 1000 × g for 5 min, and the supernatants were transferred to 96-well polyethylene plates. Hemolysis levels were determined by measuring the absorbance at 540 nm with a SpectraMax plate spectrophotometer (Molecular Devices, California, USA). Control samples were treated with 1% Triton X-100 (for 100% hemolysis) or solution with 0 μM peptide (for 0% hemolysis) and melittin (for positive control). Each experiment was performed in triplicate.

| SMILES | Hemolysis percent, 25 μM [%] | Hemolysis percent, 25 μM (red cells of human, 18 h, 25) [%] | Hemolysis percent, 50 μM (red cells of human, 18 h) [%] | Hemolysis percent, 100 μM (red cells of human, 18 h) [%] |
| --- | --- | --- | --- | --- |
| CCCCCCCCCC(=O)N[C@@H](Cc1c[nH]c2ccccc12)C(=O)N[C@H](CC(N)=O)C(=O)N[C@@H](CC(=O)O)C(=O)N[C@@H]1C(=O)NCC(=O)N[C@@H](CCCN)C(=O)N[C@@H](CC(=O)O)C(=O)N[C@H](C)C(=O)N[C@@H](CC(=O)O)C(=O)NCC(=O)N[C@H](CO)C(=O)N[C@@H]([C@H](C)CC(=O)O)C(=O)N[C@@H](CC(=O)c2ccccc2N)C(=O)O[C@@H]1C [Daptomycin, reference compound] | 0.01 ±0.02 | 0.01 | 0.03 | 0.04 ±0.02 |
| CC[C@@H](C)[C@@H](NC(=O)[C@@H](Cc1c[nH]c2ccccc12)NC(=O)[C@@H](CC(C)C)NC(=O)[C@@H](CC(C)C)NC(=O)[C@H](N)Cc1c[nH]c2ccccc12)C(=O)N[C@H](C)C(=O)N[C@H](CC(C)C)C(=O)N[C@H](CCCNC(=N)N)C(=O)N[C@H](CCCCN)C(=O)N[C@H](CCCCN)C(=O)N[C@H](CCCNC(=N)N)C(N)=O [WCopW3] (H-[dW][dL][dL][dW][dI][dA][dL][dR][dK][dK][dR]-NH2) |  | 3.64 | 9.36 | 13.37 |
| CC[C@@H](C)[C@@H](NC(=O)[C@@H](Cc1c[nH]c2ccccc12)NC(=O)[C@@H](CC(C)C)NC(=O)[C@@H](CC(C)C)NC(=O)[C@H](N)Cc1c[nH]c2ccccc12)C(=O)N[C@H](C)C(=O)N[C@H](CC(C)C)C(=O)N[C@H](CCCNC(=N)N)C(=O)N[C@H](CCCCN)C(=O)N[C@H](CCCCN)C(=O)N[C@H](CCCNC(=N)N)C(N)=O [WCopW4] (H-[dW][dL][dL][dW][dI][dA][dL][dR][dK][dK][dR]-NH2) |  | 5.94 | 9.85 | 18.84 |
| CC[C@@H](C)[C@@H](NC(=O)[C@@H](Cc1c[nH]c2ccccc12)NC(=O)[C@@H](CC(C)C)NC(=O)[C@@H](CC(C)C)NC(=O)[C@H](N)Cc1c[nH]c2ccccc12)C(=O)N[C@H](C)C(=O)N[C@H](CC(C)C)C(=O)N[C@H](CCCNC(=N)N)C(=O)N[C@H](CCCCN)C(=O)N[C@H](CCCCN)C(N)=O [WCopW6] (H-[dW][dL][dL][dW][dI][dA][dL][dR][dK][dK]-NH2) |  | 4.12 | 7.05 | 18.06 |
| CC[C@@H](C)[C@@H](NC(=O)[C@@H](Cc1c[nH]c2ccccc12)NC(=O)[C@@H](CC(C)C)NC(=O)[C@@H](CC(C)C)NC(=O)[C@H](N)Cc1c[nH]c2ccccc12)C(=O)N[C@H](C)C(=O)N[C@H](CC(C)C)C(=O)N[C@H](CCCNC(=N)N)C(=O)N[C@H](CCCCN)C(=O)N[C@H](CCCCN)C(N)=O [WCopW7] (H-[dW][dL][dL][dW][dI][dA][dL][dR][dK][dK]-NH2) |  | 7.25 | 10.05 | 14.99 |
| CC[C@@H](C)[C@@H](NC(=O)[C@@H](Cc1c[nH]c2ccccc12)NC(=O)[C@@H](CC(C)C)NC(=O)[C@H](N)CC(C)C)C(=O)N[C@H](C)C(=O)N[C@H](CC(C)C)C(=O)N[C@H](CCCNC(=N)N)C(=O)N[C@H](CCCCN)C(=O)N[C@H](CCCCN)C(=O)N[C@H](CCCNC(=N)N)C(N)=O [WCopW11] (H-[dL][dL][dW][dI][dA][dL][dR][dK][dK][dR]-NH2) |  | 0.94 | 1.02 | 1.08 |
| CC[C@@H](C)[C@@H](NC(=O)[C@@H](Cc1c[nH]c2ccccc12)NC(=O)[C@@H](CC(C)C)NC(=O)[C@H](N)CC(C)C)C(=O)N[C@H](C)C(=O)N[C@H](CC(C)C)C(=O)N[C@H](CCCCN)C(=O)N[C@H](CCCCN)C(=O)N[C@H](CCCCN)C(=O)N[C@H](CCCCN)C(N)=O [WCopW12] (H-[dL][dL][dW][dI][dA][dL][dK][dK][dK][dK]-NH2) |  | 0.98 | 0.98 | 0.98 |
